Values after ≈ are worked out from the molar mass of the structure shown.
What was measured:
Format in all cases: functional
[1] = test system: Staphylococcus aureus; assay: Antibacterial activity against Staphylococcus aureus 26003 after 24 hrs by agar dilution method
[2] = test system: Salmonella; assay: Antibacterial activity against […] 48107 after 24 hrs by agar dilution method
[3] = test system: Streptococcus pneumoniae; assay: Antibacterial activity against Streptococcus pneumoniae 31002 after 24 hrs by agar dilution method
[4] = test system: Shigella boydii; assay: Antibacterial activity against Shigella boydii 51313 after 24 hrs by agar dilution method
[5] = test system: Klebsiella pneumoniae; assay: Antibacterial activity against Klebsiella pneumoniae 46101 after 24 hrs by agar dilution method
[6] = test system: Staphylococcus epidermidis; assay: Antibacterial activity against Staphylococcus epidermidis 26069 after 24 hrs by agar dilution method

Structure (SMILES): CN[C@H](CC(C)C)C(=O)N[C@H]1C(=O)N[C@@H](CC(N)=O)C(=O)N[C@H]2C(=O)N[C@H]3C(=O)N[C@H](C(=O)N[C@H](C(=O)O)c4cc(O)cc(O)c4-c4cc3ccc4O)[C@H](O)c3ccc(c(Cl)c3)Oc3cc2cc(c3O[C@@H]2O[C@H](CO)[C@@H](O)[C@H](O)[C@H]2O[C@H]2C[C@](C)(N)[C@H](O)[C@H](C)O2)Oc2ccc(cc2Cl)[C@H]1O [VANCOMYCIN]
- MIC [1]: 0.39 µg/mL (≈ 0.269 µM)
- MIC [2]: > 6.25 µg/mL
- MIC [3]: 0.098 µg/mL (≈ 0.0676 µM)
- MIC [4]: > 6.25 µg/mL
- MIC [5]: > 6.25 µg/mL
- MIC [6]: 0.78 µg/mL (≈ 0.538 µM)
